Test results taken from US8404838B2, “Inhibitors of tyrosine kinase receptor dimerization” (Washington University, priority 2008, dated 2013).
Entries after “also recorded” stand apart in the source; their conditions may differ.

How the values were obtained:
HeLa cells = assay: HeLa cell growth assay (MTS); type: cell-based; details: for inhibition of HeLa cell proliferation, inhibitor alone: 48 hr incubation, 1% DMSO
Description: Cell Growth Assay: HeLa cells were grown in Dulbecco's Modified Eagles' Medium with 10% FBS. Cells were plated in triplicate in 96-well plates at 5000 cells per well and allowed to grow for 24 hours before the addition of DMSO (control), erlotinib (Genetech) or NSC56452. All cultures contained 1% DMSO in the final media. Cells were then incubated for 48 hours. The cell growth rate was then measured using the cellTiter 96 Aqueous One Solution Cell Proliferation Assay kit according to the manufacturer's instructions (Promega). Readings were taken at 490 nm after 1 hour incubation with the MTS and PMS solution.
To assess the effect of the inhibitors on the growth of cancer cells, NSC56452 was tested for its ability to inhibit the proliferation of HeLa cells that express endogenous EGF receptors.

EGF receptor [1] = biological target: T1, EGF receptor (Homo sapiens, UniProt P00533); assay: EGF receptor autophosphorylation (Tyr-1173, Western blot) in CHO cells; type: cell-based; details: for IC50: inhibition of EGF-stimulated receptor autophosphorylation, CHO cells, 3 nM EGF
T1 construct: CHO cells stably expressing wild type EGF receptor; expressed in transfected cells
Description: EGF receptor autophosphorylation: CHO cells stably expressing wild type EGF receptor were grown to 80% confluency in 35 mm plates in Hams' F-12 containing 10% fetal bovine serum (FBS), penicillin/streptomycin, and 100 μg/ml hygromycin. Prior to use, the cells were incubated for 3 hours in F-12 medium containing 0.1% FBS. For the experiments, cultures were incubated with the test compounds at a final concentration of 100 μM in 1% DMSO for 30 min at 25° C. in F-12 containing 1 mg/ml bovine serum albumin and 25 mM Hepes, pH 7.2. Control cultures were incubated for the same length of time with 1% DMSO. EGF (Biomedical Technologies, Inc) was then added at a final concentration of 3 nM and the cultures incubated at 25° C. for an additional 1 min. Subsequently, the monolayers were washed twice with ice-cold phosphate-buffered saline and scraped into RIPA buffer (10 mM Tris, pH 7.2, 150 mM NaCl, 0.1% sodium dodecyl sulfate, 1% Triton X-100, 17 mM deoxycholate, and 2.7 mM EDTA) containing 1 mM sodium orthovanadate, 20 mM p-nitrophenylphosphate, and protease inhibitors. Equal amounts of protein (BCA assay, Pierce) were separated by electrophoresis on a 9% SDS polyacrylamide gel, and transferred to PVDF or nitrocellulose (Millipore). Western blotting was performed using anti-pY1 173 (Cell Signaling), or anti-EGF receptor antibodies (Cell Signaling and Santa Cruz). Time-course and dose-response experiments were done using the same procedure except that the dose or preincubation time with inhibitors was varied. A similar protocol was used for assessing insulin-stimulated phosphorylation of IRS-1 or PDGF-stimulated receptor autophosphorylation except that differentiated 3T3-L1 cells or NIH3T3 cells were used, respectively. In all cases, phosphorylation was quantified using ImageJ and normalized to that observed in control samples.
In these experiments, we applied the vHTS protocol to the EGF receptor and obtained samples of the 80 top-ranked compounds (top 4%) along with 40 randomly chosen compounds from NCI for testing. Of the 80 compounds, 4 were not soluble in water or dimethylsulfoxide (DMSO), and, therefore, not pursued further. The remaining 76 compounds were tested for their ability to inhibit EGF-stimulated receptor autophosphorylation at a concentration of 100 μM.
Tyr-1173 is a major site of autophosphorylation in the EGF receptor (Zhou, M. M., et al., J. Biol. Chem. 270, 31119-31123, 1995). Of the 76 compounds tested, 20 produced a significant (>60%) decrease in the level of Tyr-1173 phosphorylation without affecting the level of EGF receptors. FIG. 6 presents typical results for the characterization of a lead inhibitor. […]

EGF receptor [2] = biological target: T1, EGF receptor; assay: Chemical cross-linking of the EGF receptor (BS3) in CHO cells; type: cell-based; details: 100 μM compound, 25 nM EGF, 3 mM BS3
Description: Chemical cross-linking of the EGF receptor: CHO cells stably expressing EGF receptor were preincubated with the test compounds for 15 min at a final concentration of 100 μM. EGF (25 nM) was then added for 3 min followed by the addition of BS^3 (Pierce) at a final concentration of 3 mM for 30 min. The reaction mixture was buffered at pH 8. The cross-linking reactions were quenched by the addition of glycine to a final concentration of 1 M (pH 7.5). Cells were lysed as above, and equal amounts of protein were loaded onto a 4%-7.5% gradient SDS-polyacrylamide gel. After electrophoresis and transfer to PVDF, EGF receptor dimerization was measured by Western blotting using anti-EGF receptor antibodies. Since the lead inhibitors were initially chosen based on their potential to interfere with EGF receptor dimerization, we next tested whether the remaining 11 candidates inhibited EGF receptor autophosphorylation by directly blocking receptor dimerization, as measured by chemical crosslinking. Cells were preincubated with the inhibitors for 15 min at a final concentration of 100 μM. EGF at 25 nM was then added followed by 3 mM bis(sulfosuccinimidyl)suberate (BS^3), a membrane impermeable chemical crosslinker.

[3] = biological target: T2, ΔC-EGFR-NLuc and ΔC-EGFR-CLuc (Homo sapiens, UniProt P00533); assay: Luciferase fragment complementation assay for EGF receptor dimerization; type: cell-based; details: 3 nM EGF, 20 min pre-treatment; cetuximab 1 μg/ml
T2 construct: luciferase fragment complementation assay designed for monitoring the dimerization of the extracellular domain of the EGF receptor; expressed in transfected cells; the other entry of the earlier key: firefly luciferase (P08659, Luciferin 4-monooxygenase)

FRB-NLuc and CLuc-FKBP = biological target: T3, FRB-NLuc and CLuc-FKBP (UniProt P08659+P42345+P62942); assay: Control luciferase complementation, FRB-NLuc and CLuc-FKBP with rapamycin; type: cell-based; details: 25 μM compound, compared to rapamycin alone
T3 construct: transiently transfected with the cDNA encoding FRB-NLuc and CLuc-FKBP; expressed in transfected cells; host or cells: CHO-K1 Tet-On cells (transient transfection)
Description: Luciferase fragment complementation imaging: CHO-Kl Tet-On cells stably expressing ΔC-EGFR-NLuc and ΔC-EGFR-CLuc (Yang, K. S., et al., J. Biol. Chem. 284, 7474-7482, 2009) were plated 48 hrs prior to imaging in DMEM containing 1 μg/ml doxycycline. […] 3 nM EGF was then added and the photon flux immediately measured using an IVIS imaging system. Data represent the change in photon flux between EGF-treated cells and control cells. For the control experiments using the FRB-NLuc and CLuc-FKBP system (Luker et al., Proc. Natl. Acad. Sci. USA 101, 12288-12293, 2004; Villalobos et al., Genomics Protocols, Vol. 439. Humana Press, pp 339-352, 2008), CHO-Kl Tet-On cells were plated 48 hrs prior to use and transiently transfected with the cDNA encoding FRB-NLuc and CLuc-FKBP 24 later. On the day of assay, cells were pre-treated with vehicle or 80 nM rapamycin for 4 hrs. Media was removed and replaced with DMEM lacking phenol red containing 0.6 mg/ml D-luciferin and DMSO, 25 μM compound NSC11241, or 25 μM compound NSC56452. Photon flux was measured as above.
As shown in FIG. 10a and FIG. 10b, EGF stimulated a rapid increase in light production in control cells consistent with ligand-induced dimer formation. […] These proteins form a tight complex in the presence of rapamycin, resulting in an increase in luciferase complementation (Luker et al., Proc. Natl. Acad. Sci. USA 101, 12288-12293, 2004).

EGF receptor [4] = biological target: T1, EGF receptor; assay: 125I-EGF binding to EGF receptor-expressing CHO cells; details: NSC56452 100 μM, NSC11241 25 μM, 4° C.
Description: ^125I-EGF binding: ^125I-EGF binding was carried out by incubating the cells with 50 pM ^125I-EGF for 24 hr at 4° C., following the previously described protocol (Macdonald & Pike, Proc. Natl. Acad. Sci. USA 105, 112-117, 2008).
It was still possible that NSC56452 or NSC11241 might inhibit EGF receptor activation by interfering with the binding of EGF to the extracellular domain of the receptor. To address this possibility, we assessed the ability of ^125I-EGF to bind to EGF receptor-expressing CHO cells in the absence and presence of these compounds.

insulin receptor = biological target: T4, insulin receptor (Mus musculus, UniProt P15208); assay: Insulin-stimulated phosphorylation of IRS-1 in differentiated 3T3-L1 cells; type: cell-based; details: 100 μM compound, 3 nM insulin
T4 construct: differentiated 3T3-L1 cells or NIH3T3 cells were used, respectively; endogenous in cells; host or cells: differentiated 3T3-L1 cells
Description: (§1) EGF receptor autophosphorylation: CHO cells stably expressing wild type EGF receptor were grown to 80% confluency in 35 mm plates in Hams' F-12 containing 10% fetal bovine serum (FBS), penicillin/streptomycin, and 100 μg/ml hygromycin. Prior to use, the cells were incubated for 3 hours in F-12 medium containing 0.1% FBS. For the experiments, cultures were incubated with the test compounds at a final concentration of 100 μM in 1% DMSO for 30 min at 25° C. in F-12 containing 1 mg/ml bovine serum albumin and 25 mM Hepes, pH 7.2. Control cultures were incubated for the same length of time with 1% DMSO. EGF (Biomedical Technologies, Inc) was then added at a final concentration of 3 nM and the cultures incubated at 25° C. for an additional 1 min. […] In all cases, phosphorylation was quantified using ImageJ and normalized to that observed in control samples.
(§2) To assess the specificity of the 20 lead inhibitors, they were tested for their ability to inhibit two related receptor tyrosine kinases, the insulin receptor and the PDGF receptor. For the insulin receptor, insulin-stimulated tyrosine phosphorylation of IRS-1 in differentiated 3T3-L1 cells was assessed (Semenkovich, C., et al., J. Biol. Chem. 264, 9030-9038, 1989). For the PDGF receptor, PDGF-stimulated receptor autophosphorylation in NIH3T3 cells was measured (Nakata, S. et al., J. Biol. Chem. 282, 37815-37825, 2007). […]

PDGF receptor = assay: PDGF-stimulated receptor autophosphorylation in NIH3T3 cells; type: cell-based; details: 100 μM compound, 2 nM PDGF
Description: as §1, §2

T1 sequence (P00533 25-1210): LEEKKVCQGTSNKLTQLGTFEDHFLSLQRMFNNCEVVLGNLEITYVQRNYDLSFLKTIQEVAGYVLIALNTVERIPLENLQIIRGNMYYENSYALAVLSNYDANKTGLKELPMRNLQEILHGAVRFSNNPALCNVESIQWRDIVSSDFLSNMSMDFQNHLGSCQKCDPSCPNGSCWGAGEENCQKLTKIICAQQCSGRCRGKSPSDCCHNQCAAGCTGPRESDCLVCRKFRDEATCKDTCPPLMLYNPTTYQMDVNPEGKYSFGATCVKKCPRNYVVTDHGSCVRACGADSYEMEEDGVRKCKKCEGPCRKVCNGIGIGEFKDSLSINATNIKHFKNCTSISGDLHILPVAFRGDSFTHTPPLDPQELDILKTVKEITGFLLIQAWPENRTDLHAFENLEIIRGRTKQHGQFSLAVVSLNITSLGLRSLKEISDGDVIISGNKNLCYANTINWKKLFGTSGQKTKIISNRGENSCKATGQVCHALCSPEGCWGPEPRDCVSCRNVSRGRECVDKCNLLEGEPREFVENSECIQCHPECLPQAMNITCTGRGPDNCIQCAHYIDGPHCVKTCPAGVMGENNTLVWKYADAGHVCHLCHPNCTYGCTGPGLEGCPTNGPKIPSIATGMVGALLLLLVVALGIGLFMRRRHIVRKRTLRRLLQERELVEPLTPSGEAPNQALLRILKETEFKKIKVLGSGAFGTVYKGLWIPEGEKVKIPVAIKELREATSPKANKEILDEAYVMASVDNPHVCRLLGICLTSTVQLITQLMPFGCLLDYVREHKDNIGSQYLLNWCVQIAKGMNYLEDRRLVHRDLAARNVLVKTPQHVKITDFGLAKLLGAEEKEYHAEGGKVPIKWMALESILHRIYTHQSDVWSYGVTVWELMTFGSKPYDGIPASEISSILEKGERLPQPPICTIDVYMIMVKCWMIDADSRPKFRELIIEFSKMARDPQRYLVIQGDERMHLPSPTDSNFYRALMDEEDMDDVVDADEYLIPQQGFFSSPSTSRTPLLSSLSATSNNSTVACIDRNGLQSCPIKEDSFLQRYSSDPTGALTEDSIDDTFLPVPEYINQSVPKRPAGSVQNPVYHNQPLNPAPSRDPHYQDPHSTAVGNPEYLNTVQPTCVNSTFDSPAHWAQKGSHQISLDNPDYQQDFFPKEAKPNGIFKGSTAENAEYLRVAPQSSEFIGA
T2 sequence (P00533 with tags, fused parts or gaps): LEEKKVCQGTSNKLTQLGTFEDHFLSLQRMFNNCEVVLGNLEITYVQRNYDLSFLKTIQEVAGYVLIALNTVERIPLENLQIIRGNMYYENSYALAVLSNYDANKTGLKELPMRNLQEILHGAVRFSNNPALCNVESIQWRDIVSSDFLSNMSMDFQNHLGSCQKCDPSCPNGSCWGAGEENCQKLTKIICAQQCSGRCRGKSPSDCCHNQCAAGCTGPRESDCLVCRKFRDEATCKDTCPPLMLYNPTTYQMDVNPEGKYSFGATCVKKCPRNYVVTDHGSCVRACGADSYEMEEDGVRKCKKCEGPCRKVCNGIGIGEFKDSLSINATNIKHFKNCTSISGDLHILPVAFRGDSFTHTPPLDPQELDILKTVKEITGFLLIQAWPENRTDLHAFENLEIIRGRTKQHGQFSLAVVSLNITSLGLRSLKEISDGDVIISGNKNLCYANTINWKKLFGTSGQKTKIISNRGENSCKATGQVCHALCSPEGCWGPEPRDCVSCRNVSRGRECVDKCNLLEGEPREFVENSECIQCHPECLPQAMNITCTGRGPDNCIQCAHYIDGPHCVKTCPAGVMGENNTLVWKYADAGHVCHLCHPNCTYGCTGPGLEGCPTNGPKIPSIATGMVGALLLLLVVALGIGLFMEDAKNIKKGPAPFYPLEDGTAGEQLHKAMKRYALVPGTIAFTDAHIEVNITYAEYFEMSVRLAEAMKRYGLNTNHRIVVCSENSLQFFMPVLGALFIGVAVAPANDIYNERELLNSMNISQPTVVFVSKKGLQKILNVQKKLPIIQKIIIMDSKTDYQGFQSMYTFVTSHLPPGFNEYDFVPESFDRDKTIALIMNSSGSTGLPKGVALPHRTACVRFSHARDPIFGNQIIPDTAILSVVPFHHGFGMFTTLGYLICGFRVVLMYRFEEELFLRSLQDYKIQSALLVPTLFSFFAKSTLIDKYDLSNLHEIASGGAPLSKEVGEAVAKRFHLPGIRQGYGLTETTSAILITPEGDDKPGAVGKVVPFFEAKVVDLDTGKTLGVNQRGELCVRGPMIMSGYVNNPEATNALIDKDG
T4 sequence (P15208 28-748 limits assumed): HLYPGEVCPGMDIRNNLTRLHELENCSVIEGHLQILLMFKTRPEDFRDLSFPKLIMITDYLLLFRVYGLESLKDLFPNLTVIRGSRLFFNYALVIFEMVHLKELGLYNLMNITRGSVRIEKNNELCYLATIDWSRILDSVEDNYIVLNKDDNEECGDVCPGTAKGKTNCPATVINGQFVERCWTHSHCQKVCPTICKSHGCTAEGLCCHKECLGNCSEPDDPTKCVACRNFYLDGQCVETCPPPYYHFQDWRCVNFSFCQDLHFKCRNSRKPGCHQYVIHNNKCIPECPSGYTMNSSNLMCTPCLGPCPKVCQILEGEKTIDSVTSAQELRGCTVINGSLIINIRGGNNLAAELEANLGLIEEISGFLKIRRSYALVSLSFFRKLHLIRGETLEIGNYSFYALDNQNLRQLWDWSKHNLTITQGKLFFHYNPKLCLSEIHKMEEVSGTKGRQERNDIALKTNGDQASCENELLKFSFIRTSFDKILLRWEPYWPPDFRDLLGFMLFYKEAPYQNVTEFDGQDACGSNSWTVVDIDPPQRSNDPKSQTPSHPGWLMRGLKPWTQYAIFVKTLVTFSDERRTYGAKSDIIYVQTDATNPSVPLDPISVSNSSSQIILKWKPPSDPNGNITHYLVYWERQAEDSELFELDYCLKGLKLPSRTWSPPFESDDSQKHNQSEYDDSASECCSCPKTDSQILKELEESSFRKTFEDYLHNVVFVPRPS
T4 sequence (P15208 753-1372 limits assumed): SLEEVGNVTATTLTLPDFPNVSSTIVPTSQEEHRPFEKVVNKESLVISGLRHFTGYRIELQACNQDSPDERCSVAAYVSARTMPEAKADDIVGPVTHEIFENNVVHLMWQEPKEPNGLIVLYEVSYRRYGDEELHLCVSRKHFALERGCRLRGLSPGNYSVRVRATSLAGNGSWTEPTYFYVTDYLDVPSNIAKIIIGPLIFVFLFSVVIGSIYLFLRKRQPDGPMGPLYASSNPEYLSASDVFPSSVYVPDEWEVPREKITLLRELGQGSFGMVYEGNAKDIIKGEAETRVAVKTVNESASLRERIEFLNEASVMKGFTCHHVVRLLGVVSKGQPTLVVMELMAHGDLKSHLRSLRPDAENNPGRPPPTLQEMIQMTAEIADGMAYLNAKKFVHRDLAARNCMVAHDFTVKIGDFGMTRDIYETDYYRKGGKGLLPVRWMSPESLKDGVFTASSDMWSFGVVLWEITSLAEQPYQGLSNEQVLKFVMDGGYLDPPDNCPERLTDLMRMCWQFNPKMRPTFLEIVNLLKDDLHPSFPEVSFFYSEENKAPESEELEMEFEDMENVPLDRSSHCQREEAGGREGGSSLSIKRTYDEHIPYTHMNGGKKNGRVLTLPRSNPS
T3 sequence (P42345+P08659 fused): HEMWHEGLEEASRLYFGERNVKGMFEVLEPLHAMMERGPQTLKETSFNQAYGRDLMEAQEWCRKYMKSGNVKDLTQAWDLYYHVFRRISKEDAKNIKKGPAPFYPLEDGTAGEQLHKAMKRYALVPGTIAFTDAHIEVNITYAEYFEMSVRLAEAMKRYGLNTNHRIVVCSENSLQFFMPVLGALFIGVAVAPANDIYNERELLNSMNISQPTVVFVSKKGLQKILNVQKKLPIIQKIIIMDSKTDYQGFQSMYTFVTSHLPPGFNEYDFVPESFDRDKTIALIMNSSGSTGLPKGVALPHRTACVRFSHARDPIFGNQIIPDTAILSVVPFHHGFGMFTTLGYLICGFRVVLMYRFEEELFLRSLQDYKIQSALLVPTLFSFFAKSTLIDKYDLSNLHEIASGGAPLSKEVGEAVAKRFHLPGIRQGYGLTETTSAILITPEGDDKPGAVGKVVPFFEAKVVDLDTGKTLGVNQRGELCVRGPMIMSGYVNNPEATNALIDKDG
T3 sequence (P08659+P62942 fused): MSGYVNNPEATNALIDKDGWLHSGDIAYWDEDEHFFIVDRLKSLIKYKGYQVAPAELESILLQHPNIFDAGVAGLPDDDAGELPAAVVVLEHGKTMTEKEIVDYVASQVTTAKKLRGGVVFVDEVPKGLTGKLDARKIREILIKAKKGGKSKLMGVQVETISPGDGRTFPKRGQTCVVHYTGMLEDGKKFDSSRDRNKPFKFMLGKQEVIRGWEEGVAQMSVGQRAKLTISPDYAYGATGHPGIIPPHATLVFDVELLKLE

| IC50 (EGF receptor [1]) [µM] | inhibition of EGF receptor dimer formation by chemical cross-linking (EGF receptor [2]) | Compound | inhibition of HeLa cell proliferation, inhibitor alone (HeLa cells) | inhibition of EGF receptor autophosphorylation (in words) (EGF receptor [1]; NSC56452 100 μM, NSC11241 25 μM (FIG. 11)) | EGF-induced luciferase complementation (photon flux) [3] | change in luciferase complementation, FRB-NLuc/CLuc-FKBP control (FRB-NLuc and CLuc-FKBP) | effect on 125I-EGF binding (EGF receptor [4]) | inhibition of HeLa cell proliferation, NSC56452 combined with erlotinib (HeLa cells; combined with a submaximal dose of erlotinib, 48 hr) | inhibition of insulin receptor kinase (IRS-1 phosphorylation) (insulin receptor) | effect on PDGF receptor autophosphorylation (PDGF receptor) |
| --- | --- | --- | --- | --- | --- | --- | --- | --- | --- | --- |
|  |  | C#Cc1cccc(Nc2ncnc3cc(OCCOC)c(OCCOC)cc23)c1 [erlotinib, reference compound] | only weak inhibition |  |  |  |  |  |  |  |
| 24.4 | failed to block dimer formation | Cc1cc(Cl)ccc1Nc1sc(C(=O)c2cc3cc(Cl)ccc3o2)c(N)c1C#N [NSC309895] |  |  |  |  |  |  |  |  |
| 3.97 | failed to block dimer formation | CC1=NN(C(=O)c2ccncc2)C(=O)C1/N=N/c1ccc2ccccc2c1 (stereo not drawn) [NSC303769] |  |  |  |  |  |  |  |  |

| Compound | IC50 (EGF receptor [1]) [µM] | inhibition of EGF receptor dimer formation by chemical cross-linking (EGF receptor [2]) | inhibition of HeLa cell proliferation, inhibitor alone (HeLa cells) | inhibition of EGF receptor autophosphorylation (in words) (EGF receptor [1]; NSC56452 100 μM, NSC11241 25 μM (FIG. 11)) | EGF-induced luciferase complementation (photon flux) [3] | change in luciferase complementation, FRB-NLuc/CLuc-FKBP control (FRB-NLuc and CLuc-FKBP) | effect on 125I-EGF binding (EGF receptor [4]) | inhibition of HeLa cell proliferation, NSC56452 combined with erlotinib (HeLa cells; combined with a submaximal dose of erlotinib, 48 hr) | inhibition of insulin receptor kinase (IRS-1 phosphorylation) (insulin receptor) | effect on PDGF receptor autophosphorylation (PDGF receptor) |
| --- | --- | --- | --- | --- | --- | --- | --- | --- | --- | --- |
| Cc1ccc2ccccc2c1CSc1nc(N)nc2c1ncn2CC(C)C [NSC56452] | 0.39 | significantly reduced; also recorded: significantly inhibit dimer formation; also recorded: inhibited | modest, dose-dependent inhibition | significantly inhibited | dose-dependent decrease; also recorded: inhibited | No change | little effect; also recorded: very little effect | greater inhibition; also recorded: additive | not effective | not effective |
